Measured values taken from patent publication US20080214563A1, “Benzimidazole Thiophene Compounds As Plk Modulators” (priority 2005, published 2008).

Key:
Format in all cases: cell-based
[1] = system: BT474; assay: Cell-Titer Glo Cell Growth Inhibition Assay, BT474; conditions: Homo sapiens; CellTiter-Glo, 72 h, BT 474; read-out: CTG BT 474 IC50
Protocol: (§1) A549-L (human lung), BT474 (human breast), Colo 205 (human colon), H1299 (human lung), Hela (human cervix), HCT-116 (human colon), HN5 (human head and neck), HT29 (human colon), LNCap (human prostate), MCF7 (human breast), MDA-MB468 (human breast), MX-1 (human breast), RPMI 8226 (human peripheral blood), SKOV3 (human ovary) and P388 (murine leukemia) cell lines were cultured in RPMI1640 containing 10% fetal bovine serum at 37° C. in a 5% CO2 incubator. Cell lines were split into T75 flasks (Falcon #353136) two to three days prior to assay set up at density which yields approximately 70-80% confluency at time of harvest for assay. Cells were harvested using 0.25% trypsin with EDTA (Glibco/Invitrogen #25200-056), Cell counts were performed on cell suspensions using Trypan Blue exclusion staining, cells were then plated in 105 uL of culture media per well at the following densities in 96 well Costar #3916 black flat bottom plates: All human cell lines were plated at 500 cells/well. P388 were plated at 250 cells/well. All plates were placed at 5% CO2 37° C. overnight and then test compounds were added the following day. One plate of each cell type is treated with CellTiter-Glo (Promega #G7573) for a day 0 proliferation measurement and read as described below. […]

[2] = system: Hela; assay: Cell-Titer Glo Cell Growth Inhibition Assay, Hela; conditions: Homo sapiens, CellTiter-Glo, 72 h, read-out: CTG Hela IC50
Protocol: as §1

[3] = system: MDA-MB468; assay: Cell-Titer Glo Cell Growth Inhibition Assay, MDA-MB468; conditions: Homo sapiens, MDA-MB-468, CellTiter-Glo, 72 h, read-out: CTG MDA-MB468 IC50
Protocol: as §1

[4] = system: LNCap; assay: Cell-Titer Glo Cell Growth Inhibition Assay, LNCap; conditions: Homo sapiens, CellTiter-Glo, 72 h, read-out: CTG LNCap IC50
Protocol: as §1

[5] = system: H1299; assay: Cell-Titer Glo Cell Growth Inhibition Assay, H1299; conditions: Homo sapiens, NCI-H1299, CellTiter-Glo, 72 h, read-out: CTG H1299 IC50
Protocol: as §1

[6] = system: RPMI 8226; assay: Cell-Titer Glo Cell Growth Inhibition Assay, RPMI 8226; conditions: Homo sapiens, CellTiter-Glo, 72 h, read-out: CTG RPMI 8226 IC50
Protocol: as §1

[7] = system: MCF7; assay: Cell-Titer Glo Cell Growth Inhibition Assay, MCF7; conditions: Homo sapiens, CellTiter-Glo, 72 h, read-out: CTG MCF7 IC50
Protocol: as §1

[8] = system: HN5; assay: Cell-Titer Glo Cell Growth Inhibition Assay, HN5; conditions: Homo sapiens, CellTiter-Glo, 72 h, read-out: CTG HN5 IC50
Protocol: as §1

Measured: IC50

C[C@@H](Oc1cc(-n2cnc3cc(-c4cnn(C)c4)ccc32)sc1C(N)=O)c1ccccc1Cl [Example 9, 3-{[(1R)-1-(2-Chlorophenyl)ethyl]oxy}-5-[5-(1-methyl-1H-pyrazol-4-yl)-1H-benzimidazol-1-yl]-2-thiophenecarboxamide]
< 100 nM: all assays above
